In patent US9585988B2, “Anchorage devices comprising an active pharmaceutical ingredient” (TYRX, Inc., priority 2010, dated 2017) one finds concentration and myofibroblast formation data, which are given here for 3 compounds.

Series [1] can be described thus: Tissue concentration of antibiotic after implantation. The series is classed as in vivo. The following applies: other: implantation.
Series [2] can be described thus: Pocket concentration of antibiotic after implantation. Format: in vivo. The conditions noted are these: other: implantation.
A short description of series [3]: Post implant serum concentration of antibiotic. The following applies: other: implantation. Format: in vivo.
Series [4] concerns myofibroblast formation. The following applies: Ajmal et al. (2003); cited from earlier work.
The mark [5] stands for this setting: 2 h, Left, read-out: Average Tissue concentration.
Where [6] appears, read: 2 h, Right, read-out: Average Tissue concentration.
Where [7] appears, read: 6 h, Left, read-out: Average Tissue concentration.
The mark [8] stands for this setting: 6 h, Right, read-out: Average Tissue concentration.
[9] abbreviates: 24 h, Left, read-out: Average Tissue concentration.
Where [10] appears, read: 24 h, Right, read-out: Average Tissue concentration.
[11] abbreviates: after about 2 hours, range worded for embodiments, see Table 7, read-out: tissue concentration.
The mark [12] stands for this setting: after about 6 hours, range worded for embodiments, see Table 7, read-out: tissue concentration.
The mark [13] stands for this setting: after about 24 hours, range worded for embodiments, see Table 7, read-out: tissue concentration.
Setting [14] is: after about 2 hours, range worded for embodiments, see Table 8.
Setting [15] is: after about 6 hours, range worded for embodiments, see Table 8.
The mark [16] stands for this setting: after about 2 hours, range worded for embodiments, see Table 9.
Setting [17] is: after about 6 hours, range worded for embodiments, see Table 9.
[18] abbreviates: after about 24 hours, range worded for embodiments, see Table 9.

Regarding `CO[C@H]1/C=C/O[C@@]2(C)Oc3c(C)c(O)c4c(O)c(c(/C=N/N5CCN(C)CC5)c(O)c4c3C2=O)NC(=O)/C(C)=C\C=C\[C@H](C)[C@H](O)[C@@H](C)[C@@H](O)[C@@H](C)[C@H](OC(C)=O)[C@@H]1C` [Rifampin], the concentration at 2 h is 765 ng/mL in series [1] (setting [5]); 1270 ng/mL in series [1] (setting [6]); 600 to 1400 ng/mL in series [1] (setting [11]); 2020 ng/mL in series [2] (2 h, Left); 16400 ng/mL in series [2] (2 h, Right); 1000 to 20000 ng/mL in series [2] (setting [14]). For the same compound, the concentration at 2 h in series [3] (2 h) was 27.1 ng/mL; in series [3] (setting [16]), 15 to 45 ng/mL. Moreover, the concentration at 6 h is 2080 ng/mL in series [1] (setting [7]); 2210 ng/mL in series [1] (setting [8]); 1900 to 2300 ng/mL in series [1] (setting [12]); 19600 ng/mL in series [2] (6 h, Left); 100000 ng/mL in series [2] (6 h, Right); 15000 to 110000 ng/mL in series [2] (setting [15]). Further, the concentration at 6 h in series [3] (6 h) is 20.8 ng/mL; in series [3] (setting [17]), 10 to 40 ng/mL. In addition, the concentration at 24 h was 4040 ng/mL in series [1] (setting [9]); 2720 ng/mL in series [1] (setting [10]); 2600 to 4200 ng/mL in series [1] (setting [13]); 44.3 ng/mL in series [3] (24 h); 30 to 60 ng/mL in series [3] (setting [18]).

Turning to `O=S(=O)([O-])CCS.[Na+]` [MESNA, sodium 2-mercaptoethane sulfonate], the myofibroblast formation result in series [4] is “diminish myofibroblast formation”.

As for `CN(C)c1ccc(O)c2c1C[C@H]1C[C@H]3[C@H](N(C)C)C(O)=C(C(N)=O)C(=O)[C@@]3(O)C(O)=C1C2=O` [Minocycline], the concentration at 2 h in series [1] (setting [5]) was 700 ng/mL; in series [1] (setting [6]) it was 783 ng/mL; in series [1] (setting [11]), 650 to 800 ng/mL; in series [2] (2 h, Left), 16400 ng/mL; in series [2] (setting [14]), 15000 to 17000 ng/mL; in series [3] (2 h), 46.5 ng/mL. This compound yielded a concentration at 2 h in series [3] (setting [16]) of 30 to 60 ng/mL. For the same compound, the concentration at 6 h in series [1] (setting [7]) is 2680 ng/mL; in series [1] (setting [8]), 2600 ng/mL; in series [1] (setting [12]), 2550 to 2750 ng/mL; in series [2] (6 h, Left) it was 26800 ng/mL; in series [2] (6 h, Right), 207000 ng/mL; in series [2] (setting [15]), 25000 to 210000 ng/mL. Besides, the results for the concentration at 6 h in series [3] (6 h) and in series [3] (setting [17]) were 79.1 ng/mL and 60 to 100 ng/mL, respectively. In addition, the concentration at 24 h in series [1] (setting [9]) was 1330 ng/mL; in series [1] (setting [10]), 1840 ng/mL; in series [1] (setting [13]), 1200 to 1900 ng/mL; in series [3] (24 h), 69.4 ng/mL; in series [3] (setting [18]), 50 to 90 ng/mL.
